Measured values published in patent publication US20190085024A1, “Alpha-Ketoamide Inhibitors Of Cysteine Proteases” (Phelix Therapeutics, priority 2017, published 2019).
Where two headings read alike, the source gives them in different places.

Assays:
MERS WT = experiment: microbe, parasite or virus in culture; type: cell-based
Cat K = molecular target: T1, Cat K (Homo sapiens, UniProt P43235); experiment: Cat K inhibition; type: biochemical
T1 sequence (P43235 115-329): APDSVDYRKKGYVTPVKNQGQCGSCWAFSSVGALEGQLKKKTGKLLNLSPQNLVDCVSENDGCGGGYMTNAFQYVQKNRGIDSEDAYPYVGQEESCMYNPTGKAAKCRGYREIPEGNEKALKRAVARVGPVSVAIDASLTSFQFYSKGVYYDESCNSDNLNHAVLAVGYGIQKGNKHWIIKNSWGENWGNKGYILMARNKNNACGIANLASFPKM

Cathepsin B = Cathepsin B (Homo sapiens, UniProt P07858); experiment: Cathepsin B enzyme assay; conditions: Cat B (μM), Ki by Morrison equation; pH 6.0, substrate Z-Phe-Arg-Amc
Calpain = Calpain enzyme assay; type: biochemical; conditions: Ki by Morrison equation; pH 7.5, 5 mM CaCl2
Cathepsin L = Cathepsin L (Homo sapiens, UniProt P07711); experiment: Cathepsin L enzyme assay; type: biochemical; conditions: Ki by Morrison equation; pH 5.5, substrate Z-Phe-Arg-Amc; read-out: Cat L
Excerpt: Two wells contained DMSO only for controls.
Velocity was converted to μM/sec.

[1] = system: EBOV WT (Ebola Wild Type); experiment: microbe, parasite or virus in culture; type: cell-based; conditions: read-out: EBOV WT (μM) (Ebola Wild Type)
[2] = system: MARV WT (Marburg Wild Type); experiment: organism not typed; type: cell-based; conditions: read-out: MARV WT (μM) (Marburg Wild Type)
Cat S = Cat S (Homo sapiens, UniProt P25774); experiment: Cat S inhibition; type: biochemical
Collagen = experiment: Fibrosis-Sirius Red Collagen Assay; type: cell-based
SMA = experiment: Fibrosis-SMA Elisa; type: cell-based
[3] = Middle East respiratory syndrome-related coronavirus, read-out: MERS WT (μM)

Sequence of Cathepsin L (P07711 114-333, species assumed): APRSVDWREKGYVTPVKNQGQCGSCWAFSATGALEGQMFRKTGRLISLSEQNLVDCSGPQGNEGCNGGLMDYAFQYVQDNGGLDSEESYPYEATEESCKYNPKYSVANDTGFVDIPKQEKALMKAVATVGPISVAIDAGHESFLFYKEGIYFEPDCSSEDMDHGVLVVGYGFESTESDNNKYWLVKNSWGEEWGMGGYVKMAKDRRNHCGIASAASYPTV
Sequence of Cat S (P25774 115-331): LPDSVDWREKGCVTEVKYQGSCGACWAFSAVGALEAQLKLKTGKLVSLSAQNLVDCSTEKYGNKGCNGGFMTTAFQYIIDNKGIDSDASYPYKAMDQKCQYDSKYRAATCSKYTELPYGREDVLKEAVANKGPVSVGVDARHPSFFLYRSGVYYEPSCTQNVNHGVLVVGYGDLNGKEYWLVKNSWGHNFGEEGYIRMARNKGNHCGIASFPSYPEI

| Structure (SMILES) | IC50 (MERS WT; [3]) [µM] | Ki (Cat K) [nM] | Ki (Cathepsin B) [µM] | Ki (Calpain) [nM] | Ki (Cathepsin L) [nM] | IC50 ([1]; Zaire ebolavirus) [µM] | IC50 [2] [µM] | Ki (Cat S) [nM] | IC50 (MERS WT; read-out: MERS WT) [µM] | IC50 [1] [µM] | IC50 (Collagen) [µM] | IC50 (SMA) [nM] |
| --- | --- | --- | --- | --- | --- | --- | --- | --- | --- | --- | --- | --- |
| CC(C)CC(NC(=O)OCc1ccccc1)C(=O)NC(C)C(=O)C(=O)N1CC(C(=O)NC(Cc2ccccc2)C(N)=O)C1 (stereo not shown) [PHELIX187, benzyl (1-((4-(3-((1-amino-1-oxo-3-phenylpropan-2-yl)carbamoyl)azetidin-1-yl)-3,4-dioxobutan-2-yl)amino)-4-methyl-1-oxopentan-2-yl)carbamate] | 56 | 3.8 | 0.0479 | 45.5 | 53.6 | 3.66 | 13.5 | 2.04 | – | – | – | – |
| CC[C@H](C)[C@H](NC(=O)C(=O)C(Cc1ccccc1)NC(=O)C(Cc1ccccc1)NC(=O)Cc1ccccc1)C(=O)N1CCCC1C(N)=O (stereo partly shown) [PHELIX204, 1-((2-oxo-4-phenyl-3-(3-phenyl-2-(2-phenylacetamido)propanamido)butanoyl)isoleucyl)pyrrolidine-2-carboxamide] | 1.8 | 9.3 | 0.277 | 204 | 0.01 | 0.13 | 0.42 | 0.44 | – | – | – | – |
| CC(NC(=O)C(Cc1ccc2ccccc2c1)NC(=O)Cc1ccccc1)C(=O)C(=O)NC(Cc1ccccc1)C(=O)NC(C)(C)C(N)=O (stereo not shown) [PHELIX206, N-(1-((1-amino-2-methyl-1-oxopropan-2-yl)amino)-1-oxo-3-phenylpropan-2-yl)-3-(3-(naphthalen-2-yl)-2-(2-phenylacetamido)propanamido)-2-oxobutanamide] | 12.6 | > 10000 | 0.12 | > 10000 | 6.52 | 2.51 | 4.68 | 3.96 | – | – | – | – |
| CC(NC(=O)C(Cc1ccccc1)NC(=O)Cc1ccccc1)C(=O)C(=O)NC(Cc1ccccc1)C(=O)NC(Cc1ccc2ccccc2c1)C(N)=O (stereo not shown) [PHELIX215, N-(1-((1-amino-3-(naphthalen-2-yl)-1-oxopropan-2-yl)amino)-1-oxo-3-phenylpropan-2-yl)-2-oxo-3-(3-phenyl-2-(2-phenylacetamido)propanamido)butanamide] | – | 22.2 | 9.24 | > 10000 | 0.18 | – | 0.16 | 0.48 | 0.99 | 0.02 | – | – |
| CCC(C)C(NC(=O)C(CC(C)C)NC(=O)OCc1ccccc1)C(=O)C(=O)N1CC(C(=O)NC(Cc2ccc3ccccc3c2)C(N)=O)C1 (stereo not shown) [PHELIX297, benzyl (1-((1-(3-((1-amino-3-(naphthalen-2-yl)-1-oxopropan-2-yl)carbamoyl)azetidin-1-yl)-4-methyl-1,2-dioxohexan-3-yl)amino)-4-methyl-1-oxopentan-2-yl)carbamate] | – | – | 0.235 | 39.9 | 42.4 | – | – | – | – | – | 3.8 | 3400 |
| CCC(C)C(NC(=O)C(CC(C)C)NC(=O)OCc1ccccc1)C(=O)C(=O)NC(Cc1ccc2ccccc2c1)C(N)=O (stereo not shown) [PHELIX309, benzyl (1-((1-((1-amino-3-(naphthalen-2-yl)-1-oxopropan-2-yl)amino)-4-methyl-1,2-dioxohexan-3-yl)amino)-4-methyl-1-oxopentan-2-yl)carbamate] | – | – | > 10 | 1.34 | 9.76 | – | – | – | – | – | 2.7 | 2000 |
| CCC(C)C(NC(=O)C(CC(C)C)NC(=O)CN1CCOCC1)C(=O)C(=O)NCC(=O)NC(Cc1ccc2ccccc2c1)C(N)=O (stereo not shown) [PHELIX314, N-(2-((1-amino-3-(naphthalen-2-yl)-1-oxopropan-2-yl)amino)-2-oxoethyl)-4-methyl-3-(4-methyl-2-(2-morpholinoacetamido)pentanamido)-2-oxohexanamide] | – | – | 0.387 | 2.44 | 3.06 | – | – | – | – | – | – | 1200 |
